Experimental data: patent US8568736B2, “Polypeptide derivatives of parathyroid hormone (PTH)” (The General Hospital Corporation, priority 1999, dated 2013)
Read-outs that look alike come from different tables or passages of the source. No end group written: not given here.

Legend:
Assay type in all cases: cell-based
[1] = target: T1, WT hPTH-1 receptor (Homo sapiens, UniProt Q03431); assay: cAMP stimulation in COS-7 cells transiently transfected with WT hPTH-1 receptor
T1 construct: encoding the intact hPTH-1 receptor (HK-WT); expressed in transfected cells; host or cells: COS-7, transient, pcDNA-1 plasmid
T1 sequence (Q03431 27-593): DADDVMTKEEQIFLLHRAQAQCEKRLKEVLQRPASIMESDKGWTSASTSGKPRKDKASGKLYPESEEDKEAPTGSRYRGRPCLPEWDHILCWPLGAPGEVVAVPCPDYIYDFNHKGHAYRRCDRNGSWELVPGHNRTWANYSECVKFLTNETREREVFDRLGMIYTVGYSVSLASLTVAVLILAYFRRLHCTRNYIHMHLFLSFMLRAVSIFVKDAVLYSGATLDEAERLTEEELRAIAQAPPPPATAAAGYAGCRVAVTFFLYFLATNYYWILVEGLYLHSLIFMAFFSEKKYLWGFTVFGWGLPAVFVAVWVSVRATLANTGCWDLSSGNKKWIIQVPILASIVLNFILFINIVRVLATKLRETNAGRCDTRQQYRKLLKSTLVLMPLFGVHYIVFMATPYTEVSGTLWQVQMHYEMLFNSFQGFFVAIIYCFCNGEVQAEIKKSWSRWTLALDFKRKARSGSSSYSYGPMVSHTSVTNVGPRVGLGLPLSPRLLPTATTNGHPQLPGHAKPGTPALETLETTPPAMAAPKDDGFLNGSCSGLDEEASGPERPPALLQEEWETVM
Method: COS-7 cells were transfected in 24-well plates when the cells were 85 to 95% of confluency using 200 ng of plasmid DNA that was purified by cesium chloride/ethidium bromide gradient centrifugation for each well. Assays were conducted 72 to 96 hours after transfection.
(§1) Stimulation of cells with peptide analogs was performed in 24-well plates. Cells were rinsed with 0.5 mL of binding buffer and treated with 200 μL of cAMP assay buffer (Dulbecco's modified Eagle's medium containing 2 mM 3-isobutyl-1-methylxanthine, 1 mg/mL bovine serum albumin, 35 mM Hepes-NaOH, pH 7.4) and 100 μL of binding buffer containing varying amounts of peptide analog (final volume=300 μL). The medium was removed after incubation for 1 h at room temperature, and the cells were frozen (−80° C.), lysed with 0.5 mL 50 mM HCl, and refrozen (−80° C.). The cAMP content of the diluted lysate was determined by radioimmunoassay. Where possible, cAMP EC50 and Maximum response values were determined using nonlinear regression (see below).
All calculations were performed using Microsoft Excel. Nonlinear regression analysis of cAMP stimulation data was performed using parameters, defined as the Minimum, Maximum, Emax, midpoint (EC50), and slope of the response curve. The predicted response (yp) for a given dose (x) of peptide was calculated using the following equation: yp=Min+[(Max−Min)/(1+(EC50/x)^slope)]. […] The statistical significance between two data sets was determined using a one-tailed Student's t-test, assuming unequal variances for the two sets.

[2] = target: T2, rat PTH-1 receptor (endogenous, ROS 17/2.8 cells) (Rattus norvegicus, UniProt P25961); assay: cAMP response in osteoblastic ROS 17/2.8 cells; conditions: for Emax: ROS 17/2.8 cells
T2 construct: The rat osteoblastic cell line ROS 17/2.8; endogenous in cells; host or cells: ROS 17/2.8 rat osteoblastic cells
T2 sequence (P25961 27-591): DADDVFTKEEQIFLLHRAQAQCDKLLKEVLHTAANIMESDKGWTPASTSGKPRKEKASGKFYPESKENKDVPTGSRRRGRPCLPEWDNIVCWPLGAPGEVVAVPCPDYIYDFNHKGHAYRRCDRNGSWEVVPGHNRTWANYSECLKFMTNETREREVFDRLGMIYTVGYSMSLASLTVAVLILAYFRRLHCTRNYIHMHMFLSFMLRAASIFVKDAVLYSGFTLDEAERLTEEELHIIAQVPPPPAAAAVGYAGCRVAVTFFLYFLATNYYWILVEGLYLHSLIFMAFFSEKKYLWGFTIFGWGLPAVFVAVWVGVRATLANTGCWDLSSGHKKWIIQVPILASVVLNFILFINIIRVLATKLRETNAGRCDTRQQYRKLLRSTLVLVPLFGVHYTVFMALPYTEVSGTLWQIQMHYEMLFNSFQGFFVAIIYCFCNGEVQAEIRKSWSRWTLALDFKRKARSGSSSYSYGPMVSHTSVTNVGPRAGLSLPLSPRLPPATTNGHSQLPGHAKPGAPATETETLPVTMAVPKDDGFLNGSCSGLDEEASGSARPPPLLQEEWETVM
Method: (§2) The rat osteoblastic cell line ROS 17/2.8 (Majeska, R. J., et al, Endocrinology 107:1494-1503 (1980)) expresses endogenous PTH-1 receptors at levels of 80,000 per cell and the human osteoblastic cell line, SAOS-2, express endogenous PTH-1 receptors at levels of ˜30,000 per cell.
as §1
(§3) All calculations were performed using Microsoft Excel. Nonlinear regression analysis of cAMP stimulation data was performed using parameters, defined as the Minimum, Maximum, Emax, midpoint (EC50), and slope of the response curve. The predicted response (yp) for a given dose (x) of peptide was calculated using the following equation: yp=Min+[(Max−Min)/(1+(EC50/x)^slope)]. The initial parameter values were estimated from the primary data, and the Excel “Solver function” was then used to vary the four parameters in order to minimize the differences between the predicted and actual responses (least-squares method) (Bowen, W., & Jerman, J., Trends in Pharmacol. Sci. 16:413-417 (1995)). The statistical significance between two data sets was determined using a one-tailed Student's t-test, assuming unequal variances for the two sets.

[3] = target: T3, human PTH-1 receptor (endogenous, SAOS-2 cells) (Homo sapiens, UniProt Q03431); assay: cAMP response in osteoblastic SAOS-2 cells
T3 construct: the human osteoblastic cell line, SAOS-2, express endogenous PTH-1 receptors; endogenous in cells; host or cells: SAOS-2 human osteoblastic cells
T3 sequence (Q03431 27-593): T1 sequence (Q03431 27-593)
Method: as §2, §1, §3

[4] = COS-7 cells, WT hPTH-1 receptor

Molecule | Emax [1, 4] [picomole/well] | EC50 ([1]; COS-7 cells, WT hPTH-1 receptor, cAMP, read-out: EC50 Log M (converted)) [nM] | Emax [2] [picomole/well] | Emax ([3]; SAOS-2 cells) [picomole/well] | EC50 [1] [nM] | EC50 [3] [nM] | EC50 [2] [nM] | EC50 ([1]; COS-7 cells, WT hPTH-1 receptor, cAMP, read-out: EC50) [nM] | EC50 ([3]; SAOS-2 cells, cAMP, read-out: EC50 (converted)) [nM] | EC50 Log M ([3]; SAOS-2 cells, cAMP)
AVAEIQLMHARAKH-NH2 [Peptide #1, AlaValAlaGluIleGlnLeuMetHisAlaArgAlaLysHis-amide] | 243 ± 63 | 1000 | 395 ± 1 | 331 | – | – | – | – | – | –
AVAEIQLMHARAKHLNSMERVEWLRKKLQDVHNY-NH2 [Peptide #7] | 222 ± 31 | – | 395 ± 1 | 272 ± 33 | 313000 ± 121000 | 0.112 | – | – | – | –
CCCC[C@H](NC(=O)[C@H](CCCNC(=N)N)NC(=O)[C@H](CCC(=O)O)NC(=O)[C@@H](NC(=O)[C@H](CO)NC(=O)[C@H](C)NC(=O)[C@H](CC(C)C)NC(=O)[C@H](Cc1c[nH]cn1)NC(=O)[C@H](CCCCN)NC(=O)CNC(=O)[C@H](CC(C)C)NC(=O)[C@H](CC(N)=O)NC(=O)[C@H](Cc1c[nH]cn1)NC(=O)[C@H](CCCC)NC(=O)[C@H](CC(C)C)NC(=O)[C@H](CCC(N)=O)NC(=O)[C@@H](NC(=O)[C@H](CCC(=O)O)NC(=O)[C@H](CO)NC(=O)[C@@H](NC(=O)[C@H](C)N)C(C)C)[C@@H](C)CC)C(C)C)C(=O)N[C@@H](CCC(N)=O)C(=O)N[C@@H](Cc1c[nH]c2ccccc12)C(=O)N[C@@H](CC(C)C)C(=O)N[C@@H](CCCNC(=N)N)C(=O)N[C@@H](CCCCN)C(=O)N[C@@H](CCCCN)C(=O)N[C@@H](CC(C)C)C(=O)N[C@@H](CCC(N)=O)C(=O)N[C@@H](CC(=O)O)C(=O)N[C@H](C(=O)N[C@@H](Cc1c[nH]cn1)C(=O)N[C@@H](CC(N)=O)C(=O)N[C@@H](Cc1ccc(O)cc1)C(N)=O)C(C)C [[Nle8, 21, Y34]rPTH(1-34), [Nle^8,21,Tyr^34]-rPTH(1-34)NH2, reference compound] | 226 ± 31 | – | 364 ± 6 | 272 ± 33 | – | 0.178 | 0.316 | – | – | –
AVAEIQLMHAR-NH2 [compound 6, AlaValAlaGluIleGlnLeuMetHisAlaArg-amide] | 238 ± 20 | – | 377 ± 23 | 235 ± 7 | – | – | – | 29100 ± 15300 | 75900 | –
AVSEIQLMHNLGKH-NH2 [native rPTH(1-14), AVSEIQLMHNLGKH, reference compound] | 221 ± 22 | – | 376 ± 23 | – | – | – | – | – | – | barely active
